In one data set the target is T1, human mGluR4 (Homo sapiens, UniProt Q14833).
T1 construct: expressed in transfected cells
As to the kind of experiment: Fluorescent cell based Ca2+ mobilization assay (FLIPR) on HEK-293 cells expressing human mGluR4. Conditions: positive allosteric modulation, HEK-293 cells expressing hmGluR4, stimulated by EC25 glutamate; mean of at least three independent experiments in duplicate; read-out: Ca^2+ Flux* (mean EC50). (A change in cytosolic calcium serves as a functional read-out for many receptors and channels.)

Drawing on patent publication US9765091B2, “Tetrahydropyrazolo [3,4-b] azepine derivatives and their use as allosteric modulators of metabotropic glutamate receptors” (Addex Pharma S.A., priority 2010, dated 2017), this text covers melting point and EC50 for three compounds.

Structures are written as SMILES.

T1 sequence (Q14833 33-912): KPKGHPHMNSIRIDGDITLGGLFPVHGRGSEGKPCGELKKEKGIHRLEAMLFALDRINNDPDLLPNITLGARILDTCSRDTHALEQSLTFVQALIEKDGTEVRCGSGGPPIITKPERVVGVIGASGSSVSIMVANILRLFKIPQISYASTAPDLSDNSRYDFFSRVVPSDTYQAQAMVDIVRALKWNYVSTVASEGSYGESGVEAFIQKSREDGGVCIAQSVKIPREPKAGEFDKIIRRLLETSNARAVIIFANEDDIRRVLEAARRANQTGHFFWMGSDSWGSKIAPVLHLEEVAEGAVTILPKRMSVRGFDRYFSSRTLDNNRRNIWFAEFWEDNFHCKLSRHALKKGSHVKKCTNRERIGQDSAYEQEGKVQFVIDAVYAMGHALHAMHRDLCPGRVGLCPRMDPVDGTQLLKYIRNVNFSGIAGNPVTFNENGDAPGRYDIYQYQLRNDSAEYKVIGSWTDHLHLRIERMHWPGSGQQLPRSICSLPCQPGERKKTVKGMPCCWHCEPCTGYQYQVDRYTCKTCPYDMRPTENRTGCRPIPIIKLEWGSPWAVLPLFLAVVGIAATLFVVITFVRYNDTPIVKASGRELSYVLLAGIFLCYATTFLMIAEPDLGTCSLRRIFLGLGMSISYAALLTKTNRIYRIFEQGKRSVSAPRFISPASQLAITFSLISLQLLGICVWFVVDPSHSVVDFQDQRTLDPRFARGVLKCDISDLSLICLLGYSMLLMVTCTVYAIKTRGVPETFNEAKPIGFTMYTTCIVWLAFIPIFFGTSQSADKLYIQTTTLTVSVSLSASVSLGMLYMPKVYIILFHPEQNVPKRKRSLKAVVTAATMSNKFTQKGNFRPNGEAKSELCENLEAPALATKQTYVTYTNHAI

What is called melting point is the temperature, or range, at which the solid turns liquid. The EC50 is the concentration giving half of the maximal effect. On to `Cc1cc(CN2CCc3sc(Nc4ncc(F)cn4)nc3-c3c[nH]nc32)on1` [Compound 1-35, N-(5-Fluoropyrimidin-2-yl)-6-((3-methylisoxazol-5-yl)methyl)-4,5,6,8-tetrahydropyrazolo[3,4-b]thiazolo[4,5-d]azepin-2-amine], for which the melting point amounted to 280 °C. Also, on human mGluR4, the EC50 was less than 100 nM.

Compound `Cc1cccc(Nc2nc3c(s2)CCN(CC2CC2)c2n[nH]cc2-3)n1` [Compound 1-39, 6-(Cyclopropylmethyl)-N-(6-methylpyridin-2-yl)-4,5,6,8-tetrahydropyrazolo[3,4-b]thiazolo[4,5-d]azepin-2-amine] yielded a melting point of 285 °C. The EC50 at human mGluR4 lay in the range of 100 to 1000 nM.

`Fc1cccc(Nc2nc3c(s2)CCN(CC2CC2)c2n[nH]cc2-3)n1` [Compound 1-40, 6-(Cyclopropylmethyl)-N-(6-fluoropyridin-2-yl)-4,5,6,8-tetrahydropyrazolo[3,4-b]thiazolo[4,5-d]azepin-2-amine] displayed a melting point of 297 °C. Moreover, the EC50 at human mGluR4 fell in the range of 100 to 1000 nM.
